According to US20240350481A1, “USE OF N-MYRISTOYL TRANSFERASE (NMT) INHIBITORS IN THE TREATMENT OF CANCER, AUTOIMMUNE DISORDERS, AND INFLAMMATORY DISORDERS” (PACYLEX PHARMACEUTICALS INC., priority 2020, published 2024):
Structures can show the parent of a compound that is named as a salt. Residues, ends and D or L forms follow the SMILES beside them. *: point of attachment. Cbz = O=C(OCc1ccccc1)*

Assays:
[1] = test system: Src and Lyn SFK protein levels; assay: SFK protein levels (Western blot); type: cell-based; conditions: BL2 cells treated with PCLX-001, 10 μM MG132 for the last 6 hrs
Description: Cells were harvested, washed in cold PBS, and lysed in […] SDS-RIPA buffer (50 mM Tris-HCl pH 8.0, 150 mM NaCl, 1% Igepal CA-630, 0.5% sodium deoxycholate, 2 mM MgCL2, 2 mM EDTA with 1×complete protease inhibitor; (Roche Diagnostics) by rocking for 15 min at 4° C. The lysates were centrifuged at 16,000 g for 10 min at 4° C., and the post-nuclear supernatant was collected.
Protein concentrations were determined by BCA assay (Thermo Scientific) according to manufacturer's instructions. Samples were prepared for electrophoresis by the addition of 5× loading buffer and boiled for 5 min. If not stated otherwise, […] of total protein per lane is loaded on a 12.5% acrylamide gels. After electrophoresis, gels are transferred onto […] nitrocellulose membrane (Bio-Rad) thereafter probed with antibodies as described in materials section.

T cells = assay: Multiplex cytokine array, activated T cell supernatant; type: cell-based, human; conditions: 48 h drug, then T cell activator with drug 2 more days
Description: (§1) Human peripheral blood mononuclear cells (PBMC) and purified T cells from healthy donors were purchased from […] Technologies (CA). Cells (7.5×10^6/ml) were cultured in the RPMI supplementing with 10% heat-inactivated fetal bovine serum (vWR), 1% penicillin/streptomycin (SigmaMillipore), 1% sodium pyruvate, and 1% non-essential amino acids (Gibco) in 24 well plates in the presence of 100 IU/ml interleukin 2 ([…] Technologies or HIV reagent program (managed by ATCC).
(§2) Then, cells were induced with T cell activator ([…]) in the presence of the drugs for 2 more days. After 4 days, the viability of treated T cells was analyzed using Flow cytometry. The supernatants for both PBMC and T cells were collected for further analysis.
The collected supernatants were analyzed for various biomarkers using multiplex cytokine array (Eve Technologies Discovery assay, Calgary, CA) either human cytokine/chemokine 71-Plex (HD71) for PBMC or human proinflammatory focused 15-Plex (HDF15) for T cells samples.

[2] = T cell viability by flow cytometry; type: cell-based; conditions: human; for viability at 4 days, 20 nM: Drug 20 nM; for viability at 4 days, 100 nM: Drug 100 nM; for viability at 4 days, 500 nM: Drug 500 nM
Description: as §1, §2

[3] = Mouse IV; cited from earlier work
[4] = test system: BCR signaling in BL2 cells; assay: BCR signaling after anti-IgM in BL2 cells (Western blot); type: cell-based; conditions: 0.1 or 1.0 μM, 48 hrs
Description: IM9, Ramos, SU-DHL-10 and COS-7 were purchased from ATCC. BL2, DOHH2, WSU-DLCL2 & BJAB were purchased from DSMZ (Germany). Ramos and BL2 were kind gifts of Drs. Jim Stone and Robert […] of University of Alberta. VDS isolation was described in Tosato G, et al. (reference 47). VDS, BJAB and SU-DHL-10 were kind gifts of Dr. Michael Gold of the University of British Columbia. HUVEC cells (pooled from up to 4 umbilical cords) were purchased from PromoCell. […] Cell lines were tested regularly for mycoplasma contamination using MycoAlert Plus Mycoplasma Detection Kit (Lonza, ME, USA). All cell lines tested negative for mycoplasma contamination. […] Please see supplementary Table 3 for cell line names, types and histology. For transfections, adherent cells COS-7 cells were transfected using X-tremeGENE9 DNA (Roche) transfection reagent according to manufacturer's instructions. For BCR activation experiments, cells were incubated with 25 μg/ml of Goat F(ab')2 anti-human IgM (or anti-human IgM (μ chain) showing identical BCR activation properties) for 2 minutes and the activation was stopped by the addition of 1 mM vanadate (Bio Basic Inc) solution in PBS. Protein concentrations were determined by BCA assay (Thermo Scientific) according to manufacturer's instructions. Samples were prepared for electrophoresis by the addition of 5× loading buffer and boiled for 5 min. […]

DOHH2 tumors = assay: DOHH2 xenograft, tumor growth; type: in vivo, mouse; conditions: doxorubicin treatment
Description: DOHH2 xenograft study at Charles River's facility: […] On Day 1 of the study, animals were given a rehydration solution ad libitum in an effort to reduce dehydration during the dosing phase of the study. […] The dose volume was 10 mL/kg.

BL2 xenografts = assay: BL2 xenograft, tumor growth; type: in vivo, mouse; conditions: doxorubicin
Description: BL2 xenograft study at Jackson Laboratory: One hundred five (105) 6 week old female NOD.CB17-Prkdc scid/J (NOD scid, Stock #001303) mice were transferred to the in vivo research laboratory in Sacramento, CA. The mice were ear notched for identification and housed in individually and positively ventilated polysulfone cages with HEPA filtered air at a density of 5 mice per cage. Initially cages were changed every two weeks. The animal room was lighted entirely with artificial fluorescent lighting, with a controlled 12 hour light/dark cycle (6 am to 6 pm light). The normal temperature and relative humidity ranges in the animal rooms were 20-26° C. and 30-70%, respectively. The animal rooms were set to have up to 15 air exchanges per hour. Filtered tap water, acidified to a pH of 2.5 to 3.0, and standard lab chow were provided ad libitum.
(§3) The dose volume was 10 mL/kg.
TGI (%)=(Vcontrol−Vtreated)/(Vcontrol−Vnitial)*100.

[5] = mouse, in vivo
Description: Data collected were the same as in the Charles River xenograft study—clinical signs, body weight, tumor volume, blood samples from 3 mice/group for hematology and clinical chemistry (ALT, AST, BUN, creatinine, CK), and tissue samples collected and fixed from the same 3 mice. Liver, kidneys, and small intestine also were weighed.
as §3

[6] = Toxicology in DLBCL3 patient derived xenograft mice; type: in vivo, mouse; conditions: within the first 7 days
Description: as §3

[7] = mouse, in vivo; remark: listed apart in the source
Description: (§4) Mice were observed daily for clinical signs of toxicity and effects on body weight. After the last dose, three mice/group were euthanized and necropsied. At euthanasia, blood samples were taken for hematology analyses and to measure AST and CK activities and bilirubin and creatinine concentrations. At necropsy, samples of samples of femur, both kidneys, liver, small intestine, and injection site were taken and fixed.
(§5) The dose volume was 10 mL/kg. At the end of the two-to three-week dosing period, mice were euthanized and three/group were necropsied. Mice that died or were euthanized early for humane reasons also were necropsied. In life, mice were monitored regularly and weighed daily, and tumors were measured with digital Vernier calipers (Mitutoyo) every other day. Tumor volume was calculated as length (mm)×width (mm)2/2; length and width were the longest and shortest diameters, respectively. At euthanasia, at the end of the dosing period blood samples were taken for hematology analyses and clinical chemistry analyses that included AST and CK activities and bilirubin and creatinine concentrations (plus ALT activity and BUN concentration in the Jackson Laboratory study). At necropsy, samples of femur, both kidneys, liver, small intestine, and injection site were collected and fixed. These were subsequently processed and examined by light microscopy for histopathologic findings. Also at necropsy, the tumors were removed and divided in two. One piece was fixed in 10% neutral buffered formalin for 24 h at room temperature and embedded in paraffin; the other was snap frozen for RNA and protein analysis. Tumor growth inhibition (TGI) for all xenograft experiments was calculated following the formula:

[8] = Toxicology in DOHH2 xenograft mice; conditions: DOHH2 xenograft; Doxorubicin 3 mg/kg Once a week; normal [5-20]
Description: as §4, §5

[9] = purified T cells from healthy donors, T cells viability (#1)
[10] = purified T cells from healthy donors, T cells viability (#2)
[11] = purified T cells from healthy donors, T cells viability (#3)

## CC(C)C[C@@H](C=O)NC(=O)[C@H](CC(C)C)NC(=O)[C@H](CC(C)C)NC(=O)OCc1ccccc1 [MG132] (Cbz-Leu-Leu-Leu-aldehyde)
[1]
  levels of the 4 SFK proteins (Src, Lyn, Hck, Lck): partial or complete restoration

## Cc1nn(C)c(C)c1N[S+](=O)([O-])c1c(Cl)cc(-c2ccnc(N3CCNCC3)c2)cc1Cl [PCLX-002]
T cells
  level of IL-5, IL-10 and IL-13: significantly reduced
  level of IL-6, IL-8 and IFN-gamma: significantly reduced
[2]; T cells viability (#1)
  viability at 4 days, 20 nM: 9%
  viability at 4 days, 100 nM: 9%
  viability at 4 days, 500 nM: 9%
[2]; T cells viability (#2)
  viability at 4 days, 20 nM: 65%
  viability at 4 days, 100 nM: 65%
  viability at 4 days, 500 nM: 65%
[2]; T cells viability (#3)
  viability at 4 days, 20 nM: 75%
  viability at 4 days, 100 nM: 75%
  viability at 4 days, 500 nM: 69%
[3]
  Clearance: 5 mL/min/kg

## Cc1nc(Nc2ncc(C(=O)Nc3c(C)cccc3Cl)s2)cc(N2CCN(CCO)CC2)n1 [dasatinib]
[4]
  HGAL and Arf1 protein levels: no effect

## Cc1nn(C)c(C)c1CCOc1c(-c2ccc3c(c2)c(CN(C)C)nn3C)ccc(F)c1F [IMP-1088, reference compound]
T cells
  TNFa secretion: increasing the secretion
  level of IL-5, IL-10 and IL-13: significantly reduced
  level of IL-6, IL-8 and IFN-gamma: significantly reduced
[2]; [9]
  viability at 4 days, 20 nM: 9%
  viability at 4 days, 100 nM: 10%
  viability at 4 days, 500 nM: 6%
[2]; [10]
  viability at 4 days, 20 nM: 61%
  viability at 4 days, 100 nM: 59%
  viability at 4 days, 500 nM: 59%
[2]; [11]
  viability at 4 days, 20 nM: 74%
  viability at 4 days, 100 nM: 70%
  viability at 4 days, 500 nM: 70%

## COc1cccc2c1C(=O)c1c(O)c3c(c(O)c1C2=O)C[C@@](O)(C(=O)CO)C[C@@H]3O[C@H]1C[C@H](N)[C@H](O)[C@H](C)O1 [doxorubicin, Doxorubicin hydrochloride, reference compound]
DOHH2 tumors
  TGI: 57%
BL2 xenografts
  effect on BL2 tumor growth: no effect
[5]
  Absolute Lymphocyte cells: 2.28 ± 0.4
  Absolute Monocyte cells: 0.7 ± 0.19
  Hemoglobin: 13.6 ± 0.21 g/dL
  MCH: 13.6 ± 0.12
  ROW %: 17.03 ± 0.15%
[6]
  toxicity of doxorubicin treatment: severe drug toxicity and death in the majority of tumor bearing mice
[7]
  reduced body weight: up to 8%
[8]
  MPV: 6.2 ± 0.15 fL

## C=CC(=O)N1CCC[C@@H](n2nc(-c3ccc(Oc4ccccc4)cc3)c3c(N)ncnc32)C1 [ibrutinib]
[4]
  HGAL and Arf1 protein levels: no effect
